Structures can show the parent of a compound that is named as a salt.
How the values were obtained:
HepG2 = HepG2 toxicity (resazurin), effect normalised to DMSO (DMSO = 0); higher = more features changed / larger toxic effect; settings: incubation time: 70h incubation
HeLa [1] = assay: HeLa toxicity: nuclei-count effect normalised to DMSO (DMSO = 0); higher = more features changed / larger toxic effect; settings: incubation time: 24h incubation
HeLa [2] = assay: Cell Painting percent induction (share of features beyond 2 z-scores vs DMSO); higher = more features changed / larger toxic effect; extreme values may be limits of the assay; settings: incubation time: 24h incubation
human spermatozoa [3] = assay: total motile sperm, percent change vs DMSO (non-capacitating); higher = more of the measured sperm population than DMSO, for viability, fewer PI-positive (dead) cells than DMSO
human spermatozoa [4] = assay: viability fold change, 1 - (PI-positive fraction / DMSO median); higher = more of the measured sperm population than DMSO, for viability, fewer PI-positive (dead) cells than DMSO; settings: incubation time: 3h, non-capacitating
human spermatozoa [5] = assay: progressively motile sperm, percent change vs DMSO (capacitating); higher = more of the measured sperm population than DMSO, for viability, fewer PI-positive (dead) cells than DMSO; settings: incubation time: 30min incubation
human spermatozoa [6] = assay: hyperactivated motile sperm, percent change vs DMSO (capacitating); higher = more of the measured sperm population than DMSO, for viability, fewer PI-positive (dead) cells than DMSO; settings: incubation time: 30min incubation
human spermatozoa [7] = assay: change in acrosome-reacted (PNA+) sperm vs DMSO, no agonist (capacitating); higher = more of the measured sperm population than DMSO, for viability, fewer PI-positive (dead) cells than DMSO; settings: incubation time: 3h
human spermatozoa [8] = assay: acrosome-reacted (PNA+) sperm after agonist cocktail, percent change vs DMSO (capacitating); higher = more of the measured sperm population than DMSO, for viability, fewer PI-positive (dead) cells than DMSO; settings: incubation time: 3h, capacitating + agonist cocktail 1h
human spermatozoa [9] = assay: progressively motile sperm, percent change vs DMSO (non-capacitating); higher = more of the measured sperm population than DMSO, for viability, fewer PI-positive (dead) cells than DMSO; extreme values may be limits of the assay
[10] = incubation time: 10min incubation, 9.99 µM
[11] = incubation time: 10min incubation, 29.9 µM
[12] = incubation time: 3h incubation, 9.99 µM
[13] = incubation time: 3h incubation, 29.9 µM
[14] = incubation time: 6h incubation, 9.99 µM
[15] = incubation time: 6h incubation, 29.9 µM
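Throughout, for progressively motile sperm, percent change vs DMSO (non-capacitating): pooled live human sperm from at least 3 donors, tracked by automated microscopy in 0.5 s time-lapse movies, compounds at 10 and 30 µM, versus median of 16 DMSO wells per plate.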
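Throughout, for total motile sperm, percent change vs DMSO (non-capacitating): sperm pooled from at least 3 donors, tracked in 0.5 s time-lapse movies by automated microscopy after 10 min, 3 h or 6 h with compound at 10 or 30 µM.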

SMILES | HepG2 toxicity (HepG2; 10 µM) [%] | HepG2 toxicity (HepG2; 30 µM) [%] | HeLa toxicity: nuclei-count effect normalised (HeLa [1]; 9.99 µM) [%] | HeLa toxicity: nuclei-count effect normalised (HeLa [1]; 29.9 µM) [%] | Cell Painting percent induction (HeLa [2]; 9.99 µM) [%] | Cell Painting percent induction (HeLa [2]; 29.9 µM) [%] | total motile sperm (human spermatozoa [3]; [10]) [%] | total motile sperm (human spermatozoa [3]; [11]) [%] | total motile sperm (human spermatozoa [3]; [12]) [%] | total motile sperm (human spermatozoa [3]; [13]) [%] | total motile sperm (human spermatozoa [3]; [14]) [%] | total motile sperm (human spermatozoa [3]; [15]) [%] | viability fold change (human spermatozoa [4]; 9.99 µM) | viability fold change (human spermatozoa [4]; 29.9 µM) | progressively motile sperm (human spermatozoa [5]; 9.99 µM) [%] | progressively motile sperm (human spermatozoa [5]; 29.9 µM) [%] | hyperactivated motile sperm (human spermatozoa [6]; 9.99 µM) [%] | hyperactivated motile sperm (human spermatozoa [6]; 29.9 µM) [%] | change in acrosome-reacted (human spermatozoa [7]; 9.99 µM) [%] | change in acrosome-reacted (human spermatozoa [7]; 29.9 µM) [%] | acrosome-reacted (human spermatozoa [8]; 9.99 µM) [%] | acrosome-reacted (human spermatozoa [8]; 29.9 µM) [%] | progressively motile sperm (human spermatozoa [9]; [10]) [%] | progressively motile sperm (human spermatozoa [9]; [11]) [%] | progressively motile sperm (human spermatozoa [9]; [12]) [%] | progressively motile sperm (human spermatozoa [9]; [13]) [%] | progressively motile sperm (human spermatozoa [9]; [14]) [%] | progressively motile sperm (human spermatozoa [9]; [15]) [%]
Nc1nonc1C(=O)c1cccc(OCc2nc3ccccc3[nH]2)c1 [ASI-8] | 7.95 | -4.37 | -5.48 | 1.8 | 0.036 | 0.072 | 3.13 | 2.79 | 1.2 | -0.414 | 3.96 | 1.2 | -0.34 | -0.223 | 11.1 | 6.99 | -38 | -39.8 | 0.432 | 0.568 | -14.8 | -14.9 | -2.86 | -2.99 | -14.7 | -20.6 | -17.4 | -29.2
NC(=O)Nc1cc(-c2cccc(F)c2)sc1C(=O)N[C@H]1CCCNC1 [AZD 7762 hydrochloride] | 101 | 101 | 80.1 | 76.8 | 17 | 11 | -11.3 | -17.4 | -10.7 | -22.4 | -13.2 | -23.1 | -0.829 | -1.22 | -19.7 | -30.7 | -57.9 | -72 | 0.07 | 1.03 | -44.6 | -44 | -49.3 | -57.6 | -35.4 | -48.7 | -30.8 | -49.2
CCCCC(CC)C/N=C(\N)N/C(N)=N/CCCCCC/N=C(\N)N/C(N)=N/CC(CC)CCCC (configuration not stated) [Alexidine dihydrochloride] | 89.8 | 103 | 82.5 | 57.3 | 4.11 | 13.2 | -25.4 | -91.3 | -92.5 | -89.6 | -92.8 | -89.2 | -2.59 | -3.31 | -95.3 | -100 | -81.6 | -86.5 | 65.4 | 86.5 | 148 | 214 | -63.3 | -99.9 | -99.9 | -100 | -100 | -100
COc1cc2nc(N(C)CCCNC(=O)C3CCCO3)nc(N)c2cc1OC (configuration not stated) [Alfuzosin] | -1.03 | 4.29 | 5.08 | 0.668 | 0 | 0 | -4.58 | -4.17 | -0.419 | -6.01 | -5.29 | -6.7 | -0.036 | -0.0945 | 16 | 9.67 | 37.3 | 5.32 | -0.201 | -0.552 | -3.12 | 0.779 | 0.477 | -1.83 | 14.5 | 16.4 | 16.7 | 20.9
CCCCC/C=C\C/C=C\C/C=C\C/C=C\CCCC(=O)NCCO [Anandamide] | 4 | -4.04 | 3.27 | 22.7 | 0 | 0 | 0.0733 | 1.31 | -5.97 | 0.46 | -4.78 | -4.35 | -1.03 | -1.89 | 5.07 | 5.94 | -8.05 | -17.2 | 0.407 | 0.71 | -2.45 | -3.7 | 0.835 | 4.89 | 8.76 | 18.1 | 15.3 | 17.7
Cn1c(=O)c2c(-c3ccccc3)n3c(c2n(C)c1=O)[C@H](c1ccc(Br)o1)Oc1ccc(C(=O)O)cc1-3 [BPO-27] | 6.74 | -5.25 | -5.61 | -3.14 | 0.901 | 0 | -0.595 | -2.15 | 1.67 | -2.1 | 2.71 | -8.78 | -0.786 | -0.502 | -0.551 | -1.51 | 26.2 | 0.866 | 0.114 | -0.202 | 6.48 | 12.2 | 4.77 | 14.7 | 32.6 | 41.5 | 37.8 | 42.7
Oc1c(Cl)cc(Cl)cc1Sc1cc(Cl)cc(Cl)c1O [Bithionol] | 7.02 | 59.3 | -4.61 | 21.5 | 0 | 0.036 | 3.44 | 1.84 | 1.98 | -0.0801 | 2.41 | -5.59 | 0.0494 | 0.376 | 2.24 | 1.88 | 4.13 | 7.86 | 0.572 | 1.65 | 1.08 | -1.64 | 3.11 | -10.9 | 11.4 | -27.5 | 17.4 | -30.7
NC(=O)c1cc(-c2ccc(S(=O)(=O)[C@H]3CC[C@H](Nc4ccc(C(F)(F)F)cn4)CC3)cc2)ccn1 [CCR6 inhibitor 1] | 93.6 | 97.6 | 38.5 | 82.3 | 0.144 | 1.51 | -1.18 | -0.388 | -10.1 | -17.5 | -12.7 | -30 | -1.3 | -0.257 | 4.84 | -2.5 | 0.384 | -27 | 0.47 | 1.33 | 47.9 | 31 | 20.1 | 23 | 25.5 | 9.27 | 37.7 | -18.5
O=C(O)c1ccc(/C=C2/SC(=S)N(c3cccc(C(F)(F)F)c3)C2=O)cc1 [CTFRinh-172] | 10.5 | -1.68 | 0.134 | 4.28 | 1.51 | 2.67 | -0.0195 | 0.898 | 0.0108 | -0.0432 | -7.63 | -1.41 | -0.401 | -0.284 | -6.92 | -8.59 | -0.45 | -19.9 | 0.257 | -0.529 | 2.51 | 5.75 | 3.85 | -3.67 | 4.25 | 3.7 | -2.41 | 3.06

Reference: the supplement of paper PMC10878532, “Sperm Toolbox—A selection of small molecules to study human spermatozoa” (PLOS ONE, 2024)
